From US10875829B1, “Azetidine derivatives useful as modulators of cortical catecholaminergic neurotransmission” (Integrative Research Laboratories Sweden AB, priority 2016, dated 2020) come the findings set out here.

SMILES strings stand for the structures. Counter-ions that a name gives are not always drawn. Like-named read-outs stand apart in the source and are kept apart here. Marks after values point to notes of the source that are not given here.

In experiment [1] the target is Human Dopamine Transporter (DAT (h)) (Homo sapiens (Human), UniProt Q01959). As to the kind of experiment: Radioligand binding assay, human dopamine transporter ([3H]BTCP). The conditions noted are these: for inhibition at 10 µM: 2 h, single concentration 1.0 E-5 M, duplicate, mean values; for IC50: dose-response curves. The protocol:
(The measurement was performed as described in Pristuba, Z. B., Wilson, J. M., Hoffman, B. J., Kish, S. J. and Nisnik, H. B. (1994), Pharmacological heterogeneity of the cloned and native human dopamine transporter: disassociation of [3H]WIN 35,428 and [3H]GBR 12,935 binding, Mol. Pharmacol., 45: 125)
Cell membrane homogenates (20 μg protein) are incubated for 120 min at 4° C. with 4 nM
[3H]BTCP in the absence or presence of the test compound in a buffer containing 50 mM Tris-HCl (pH 7.4) and 100 mM NaCl. Nonspecific binding is determined in the presence of 10 μM BTCP. Following incubation, the samples are filtered rapidly under vacuum through glass fiber filters (GF/B, Packard) presoaked with 0.3% PEI and rinsed several times with ice-cold 50 mM Tris-HCl using a 96-sample cell harvester (Unifilter, Packard). The filters are dried then counted for radioactivity in a scintillation counter (Topcount, Packard) using a scintillation cocktail (Microscint 0, Packard).
The results are expressed as a percent inhibition of the control radioligand specific binding.
(§1) […] Reported values are mean values.

Experiment [2] deals with Human 5-HT Transporter (SERT (h)) (Homo sapiens (Human), UniProt P31645). As to the kind of experiment: Radioligand binding assay, human 5-HT transporter ([3H]imipramine). Conditions: for inhibition at 10 µM: 1 h, single concentration 1.0 E-5 M, duplicate, mean values; for IC50: dose-response curves. The protocol:
(The measurement was performed as described in Tatsumi, M., Jansen, K., Blakely, R. D. and Richelson, E. (1999), Pharmacological profile of neuroleptics at human monoamine transporters, Eur. J. Pharmacol.
Cell membrane homogenates (12 μg protein) are incubated for 60 min at 22° C. with 2 nM [3H]imipramine in the absence or presence of the test compound in a buffer containing 50 mM Tris-HCl (pH 7.4), 120 mM NaCl, 5 mM KCl and 0.1% BSA.
Nonspecific binding is determined in the presence of 10 μM imipramine.
Following incubation, the samples are filtered rapidly under vacuum through glass fiber filters (GF/B, Packard) presoaked with 0.3% PEI and rinsed several times with an ice-cold buffer containing 50 mM Tris-HCl and 150 mM NaCl using a 96-sample cell harvester (Unifilter, Packard). The filters are dried then counted for radioactivity in a scintillation counter (Topcount, Packard) using a scintillation cocktail (Microscint 0, Packard).
The results are expressed as a percent inhibition of the control radioligand specific binding
as §1

In experiment [3] the test system is NA, DA and 5-HT. As to the kind of experiment: In vivo brain microdialysis: extracellular monoamines in striatum and frontal cortex. Details: species or system Sprague-Dawley rats. The conditions noted are these: for response vs control in vivo at 50 µmol/kg / response vs control in vivo at 16.7 µmol/kg: Rattus norvegicus, sc. The text has this:
The microdialysis technique is a well-established technique for measuring extracellular levels of neurotransmitters (Ungerstedt, J Int Med, 1991, 230; 365-73). The microdialysis technique was used to measure the effect of compounds disclosed herein upon the efflux of monoamine transmitters (NA, DA and 5-HT) in striatum and frontal cortex in conscious, freely moving rats.
Male Sprague-Dawley rats weighing 280-320 g were used throughout the experiments. Before the experiment the animals were housed in groups, maximum five animals in each cage, with free access to water and food. The animals were housed at least one week prior to surgery and use in the experiments.
A modified version (Waters et al., J Neural Transm Gen Sect, 1994, 98(1); 39-55) of the !-shaped probe (Santiago and Westerink, N-S Arch Pharmacol, 1990, 342; 407-14) with the AN69 polyacrylonitrile/sodium methyl sulfonate copolymer (HOSPAL; o.d/i.d. 310/220 μm: dialysis membrane (Gambro, Lund, Sweden) was used in the microdialysis experiments. In the dorsal striatum, probes with an exposed length of 3 mm of dialysis membrane were used and in the prefrontal cortex the corresponding length was 2.5 mm. The rats were operated under isoflurane inhalation anesthesia while mounted into a Kopf stereotaxic instrument. Coordinates were calculated relative to bregma; dorsal striatum AP+1.0, ML±2.6, DV 6.2; Pf cortex, AP+3.2, ML±1.2, DV −4.0 8°, according to Paxinos and Watson (New York, Academic Press, 1986; FIG. 8 and FIG. 14). The dialysis probe was positioned in a burr hole under stereotaxic guidance and cemented with phosphatine dental cement (DAB Dental).
The rats were housed individually in cages for 48 h before the dialysis experiments, allowing them to recover from surgery and minimizing the risk of drug interactions with the anesthetics during the following experiments. During this period the rats had free access to food and water. On the day of the experiment the rats were connected to a micro-perfusion pump via a swivel and were replaced in the cage where they could move freely within its confinements. The perfusion medium was a Ringer's solution containing (in mmol/l): NaCl; 140, CaCl2); 1.2, KCl; 3.0, MgCl2; 1.0 (Moghaddam and Bunney. Neurochem., 1989, 53; 652-4). The pump was set to a perfusion speed of 2 μl/min and 40 μl sample volume were collected every 20 min.
The rats were perfused for at least 40 min before sampling began. Five fractions of each 20 min were collected and the last three were used for the establishment of the baseline. After collection of baseline fractions, the pharmacological challenge to the dialysis experiment started. Test compounds were administrated by injection (s.c.) in a volume of 5 ml/kg, with 0.9% NaCl (saline) as vehicle.
The analytical method were based on two chromatographic separations dedicated for amines or acids. Two chromatographic systems shared a common auto injector with a 10-port valve and two sample loops for simultaneous injection on the two systems.
The acids were separated by reversed phase chromatography while the amines were separated by reversed phase ion pairing chromatography preceded by a reverse phase separation in a column switching configuration. Three separation columns (Luna C18 (2), dp 3 μm, 2 mm i.d., Phenomenex) of different lengths were used. Electrochemical detection was accomplished on glassy carbon electrodes (MF-1000, Bioanalytical Systems, Inc.)
The aqueous mobile phase (0.6 ml/min) for the acid system contained citric acid (40 mM, dipotassium hydrogen phosphate 10 mM, methanol 8-11% (v/v) and EDTA 0.1 mM. Column length was 30 mm and detection potential relative to Ag/AgCl reference was 0.74V.
The aqueous ion pairing mobile phase (0.4 ml/min) for the amine system contained citric acid 5 mM, sodium citrate 10 mM, acetone 9% (v/v), tetrahydrofurane 3% (v/v), dodecane sulphonic acid 0.025 mM, and EDTA 0.1 mM. Column length was 50 mm and the preceding column was 20 mm. […]

[4] abbreviates: 50 μmol/kg s.c., striatum, n=1-3.
[5] abbreviates: 50 μmol/kg s.c., frontal cortex, n=1-3, read-out: 5-HT FC, maximum effect compared to baseline ± SEM.
The mark [6] stands for this setting: 50 μmol/kg s.c., striatum, n=1-3, read-out: 5-HT Stri, maximum effect compared to baseline ± SEM.
The mark [7] stands for this setting: 50 μmol/kg s.c., striatum, n=1-3, read-out: DA Stri, maximum effect compared to baseline ± SEM.
Setting [8] is: 50 μmol/kg s.c., frontal cortex, n=1-3, read-out: DA FC, maximum effect compared to baseline ± SEM.
[9] abbreviates: ratio of IC50 values of Table 6.

Chain of Human Dopamine Transporter (DAT (h)) (Q01959 whole entry): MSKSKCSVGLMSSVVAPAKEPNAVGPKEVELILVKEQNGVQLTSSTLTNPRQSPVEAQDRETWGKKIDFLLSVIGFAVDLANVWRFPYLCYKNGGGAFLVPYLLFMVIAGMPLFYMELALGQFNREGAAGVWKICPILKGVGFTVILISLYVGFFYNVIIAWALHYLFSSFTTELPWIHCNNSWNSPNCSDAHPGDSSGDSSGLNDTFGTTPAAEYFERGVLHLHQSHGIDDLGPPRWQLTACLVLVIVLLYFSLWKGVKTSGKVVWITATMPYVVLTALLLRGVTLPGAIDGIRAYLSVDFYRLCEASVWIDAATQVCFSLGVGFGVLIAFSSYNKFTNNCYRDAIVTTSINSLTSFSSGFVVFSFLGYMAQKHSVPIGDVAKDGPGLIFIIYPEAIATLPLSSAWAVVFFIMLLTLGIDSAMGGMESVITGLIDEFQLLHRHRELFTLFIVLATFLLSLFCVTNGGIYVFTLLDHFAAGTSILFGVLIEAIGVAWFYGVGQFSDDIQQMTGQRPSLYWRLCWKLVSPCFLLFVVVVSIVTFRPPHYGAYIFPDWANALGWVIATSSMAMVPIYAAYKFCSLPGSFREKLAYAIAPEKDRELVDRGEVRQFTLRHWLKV
Chain of Human 5-HT Transporter (SERT (h)) (P31645 whole entry): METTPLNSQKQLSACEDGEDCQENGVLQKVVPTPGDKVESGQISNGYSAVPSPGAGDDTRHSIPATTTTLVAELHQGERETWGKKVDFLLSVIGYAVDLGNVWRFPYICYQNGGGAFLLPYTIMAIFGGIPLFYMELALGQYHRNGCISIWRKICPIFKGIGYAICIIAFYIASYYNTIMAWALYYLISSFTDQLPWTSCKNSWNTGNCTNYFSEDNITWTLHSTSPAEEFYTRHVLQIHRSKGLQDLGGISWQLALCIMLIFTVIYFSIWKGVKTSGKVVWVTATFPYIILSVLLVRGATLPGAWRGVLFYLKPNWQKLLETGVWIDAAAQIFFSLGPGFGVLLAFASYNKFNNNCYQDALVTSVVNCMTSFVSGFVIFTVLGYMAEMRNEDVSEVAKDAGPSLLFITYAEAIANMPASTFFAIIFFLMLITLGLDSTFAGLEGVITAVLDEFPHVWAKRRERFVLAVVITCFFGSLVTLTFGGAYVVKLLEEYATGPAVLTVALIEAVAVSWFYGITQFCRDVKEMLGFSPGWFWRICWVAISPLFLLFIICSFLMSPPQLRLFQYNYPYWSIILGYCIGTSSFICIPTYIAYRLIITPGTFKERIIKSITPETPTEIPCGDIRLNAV

For `Fc1cccc(OC2CNC2)c1F` [Example 1A, 3-(2,3-difluorophenoxy)azetidine hydrochloric acid salt], the inhibition at 10 µM in experiment [1] was 49%; in experiment [2], 59%. Also, the 50% inhibitory concentration (IC50) in experiment [1] is 21 µM; in experiment [2] it was 34 µM. For the same compound, the “NA Stri, maximum effect compared to baseline ± SEM” value in experiment [3] (setting [4]) is 155 ± 33^a % of control. Besides, the response vs control in vivo at 50 µmol/kg in experiment [3] (setting [5]) amounted to 207 ± 49%; in experiment [3] (setting [6]), 217 ± 21%; in experiment [3] (setting [7]), 155 ± 9.6%.
As to `Fc1cc(F)c(F)c(OC2CNC2)c1` [Example 2, 3-(2,3,5-trifluorophenoxy)azetidine hydrochloric acid salt], the inhibition at 10 µM in experiment [1] and in experiment [2] was 12% in each case. For the same compound, the response vs control in vivo at 50 µmol/kg was found to be 160 ± 32% in experiment [3] (setting [5]), 600 ± 5.8% in experiment [3] (setting [8]), 202 ± 5.6% in experiment [3] (setting [6]) and 134 ± 13% in experiment [3] (setting [7]).
Turning to `Fc1cc(F)c(F)c(OC2CNC2)c1F` [Example 3, 3-(2,3,5,6-tetrafluorophenoxy)-azetidine hydrochloric acid salt], the inhibition at 10 µM is 10% in experiment [1] and 11% in experiment [2]. Besides, the response vs control in vivo at 50 µmol/kg in experiment [3] (setting [5]) was found to be 205 ± 78%; in experiment [3] (setting [8]), 735 ± 18%; in experiment [3] (setting [6]), 197 ± 80%; in experiment [3] (setting [7]), 196 ± 22%.
`Fc1ccc(F)c(OC2CNC2)c1F` [Example 20, 3-(2,3,6-trifluorophenoxy)azetidine hydrochloric acid salt]: the inhibition at 10 µM was 25% in experiment [1] and 6% in experiment [2]. Moreover, the response vs control in vivo at 50 µmol/kg is 164 ± 36% in experiment [3] (setting [5]), 441 ± 35% in experiment [3] (setting [8]), 141% in experiment [3] (setting [6]) and 146 ± 4% in experiment [3] (setting [7]).
For the compound `CCN1CC(Oc2c(F)c(F)cc(F)c2F)C1` [Example 39, 1-ethyl-3-(2,3,5,6-tetrafluorophenoxy)azetidine hydrochloric acid salt], the inhibition at 10 µM in experiment [1] stood at 17%; in experiment [2], 1.5%. For the same compound, in experiment [3] (setting [4]), the “NA Stri, maximum effect compared to baseline ± SEM” value is given as 334 ± 10^a % of control. For the same compound, the response vs control in vivo at 50 µmol/kg in experiment [3] (setting [5]) was found to be 256%; in experiment [3] (setting [8]), 359%; in experiment [3] (50 μmol/kg s.c., frontal cortex, n=1-3, read-out: NA FC, maximum effect compared to baseline ± SEM), 414%; in experiment [3] (setting [6]), 281%; in experiment [3] (setting [7]) it was 218 ± 18%.
Turning to `Fc1cc(F)cc(OC2CNC2)c1.O=C(O)C(O)C(O)C(=O)O` [Example 52B, 3-(3,5-difluorophenoxy)azetidine (+)-tartaric acid salt], in experiment [3] (Dose 16.7 μmol/kg s.c, striatum), the “NA Stri, maximum effect compared to baseline ± SEM” value is given as 151^b % of control. Besides, the response vs control in vivo at 16.7 µmol/kg in experiment [3] (Dose 16.7 μmol/kg s.c, frontal cortex, read-out: 5-HT FC, maximum effect compared to baseline ± SEM) was found to be 213 ± 86%; in experiment [3] (Dose 16.7 μmol/kg s.c, frontal cortex, read-out: DA FC, maximum effect compared to baseline ± SEM), 638 ± 106%; in experiment [3] (Dose 16.7 μmol/kg s.c, frontal cortex, read-out: NA FC, maximum effect compared to baseline ± SEM), 968 ± 176%; in experiment [3] (Dose 16.7 μmol/kg s.c, striatum, read-out: 5-HT Stri, maximum effect compared to baseline ± SEM) it was 146 ± 18%; in experiment [3] (Dose 16.7 μmol/kg s.c, striatum, read-out: DA Stri, maximum effect compared to baseline ± SEM), 120 ± 6%.
For the compound `Fc1cc(F)cc(OC2CNC2)c1` [Example 52C, 3-(3,5-difluorophenoxy)azetidine hydrochloric acid salt], the inhibition at 10 µM in experiment [1] is 25%; in experiment [2], 29%. In addition, the “NA Stri, maximum effect compared to baseline ± SEM” value in experiment [3] (setting [4]) is given as 196 ± 26^a % of control. Further, the results for the response vs control in vivo at 50 µmol/kg in experiment [3] (setting [5]) and in experiment [3] (setting [7]) were 424 ± 119% and 147 ± 6%, respectively.
As to `Clc1ccc(OC2CNC2)cc1Cl` [Reference Compound, 3-(3,4-dichlorophenoxy)azetidine hydrochloric acid salt, reference compound], the inhibition at 10 µM in experiment [1] amounted to 79%; in experiment [2], 92%. Besides, the 50% inhibitory concentration (IC50) in experiment [1] amounted to 3.5 µM; in experiment [2], 1.3 µM. Besides, the “fold more potent than Example 1A at DAT” value in experiment [1] (setting [9]) came to 6 fold. In addition, the “fold more potent than Example 1A at SERT” value in experiment [2] (setting [9]) is 26 fold. In addition, the “NA Stri, maximum effect compared to baseline ± SEM” value in experiment [3] (setting [4]) is 987 ± 425 % of control. Further, the response vs control in vivo at 50 µmol/kg in experiment [3] (setting [5]) was 682 ± 14%; in experiment [3] (setting [7]), 136 ± 48%.
